The data set has as its system CCRIS mutagenicity, Ames/micronucleus/aberration tests. Description: CCRIS mutagenicity studies.
[1] abbreviates: Test System: MOUSE LYMPHOMA, Strain/Indicator: L5178Y (TK+/TK-), Metabolic Activation: NONE, Method: SUSPENSION/PLATE.
The mark [2] stands for this setting: Test System: AMES SALMONELLA TYPHIMURIUM, Strain/Indicator: TA98, Metabolic Activation: NONE, Method: STANDARD PLATE.
Where [3] appears, read: Test System: AMES SALMONELLA TYPHIMURIUM, Strain/Indicator: TA98, Metabolic Activation: RAT, LIVER, S-9, AROCLOR 1254, Method: STANDARD PLATE.

Calls of active or inactive are those of the source. No rule for the calls is given here.

Consider `COP(=O)(OC)OC=C(Cl)Cl`, for which the mutagenic call reads like this: (End Point: IN VITRO CHROMOSOMAL ABERRATIONS, Test System: CHO CELLS, Metabolic Activation: NONE) “active; positive”; (End Point: IN VITRO CHROMOSOMAL ABERRATIONS, Test System: CHO CELLS, Metabolic Activation: RAT, LIVER, S-9, AROCLOR 1254) “active; positive”; (End Point: In vivo micronucleus, Test System: Erythrocytes, Species: Mouse, Strain/Sex: Males and females (Strain not identified by DPR), Route: Intraperitoneal) “inactive; negative”; (Test System: AMES SALMONELLA TYPHIMURIUM, Strain/Indicator: TA98, Metabolic Activation: HAMSTER, LIVER, S-9, AROCLOR 1254 (30%), Method: PREINCUBATION) “inactive; negative”; (Test System: AMES SALMONELLA TYPHIMURIUM, Strain/Indicator: TA98, Metabolic Activation: NONE, Method: PREINCUBATION) “inactive; negative”; (Test System: AMES SALMONELLA TYPHIMURIUM, Strain/Indicator: TA98, Metabolic Activation: RAT, LIVER, S-9, AROCLOR 1254 (30%), Method: PREINCUBATION) “inactive; negative”. For the same compound, the mutagenic call reads like this: (Test System: AMES SALMONELLA TYPHIMURIUM, Strain/Indicator: TA100, Metabolic Activation: HAMSTER, LIVER, S-9, AROCLOR 1254 (30%), Method: PREINCUBATION) “active; positive”; (Test System: AMES SALMONELLA TYPHIMURIUM, Strain/Indicator: TA100, Metabolic Activation: NONE, Method: PREINCUBATION) “active; positive”; (Test System: AMES SALMONELLA TYPHIMURIUM, Strain/Indicator: TA100, Metabolic Activation: RAT, LIVER, S-9, AROCLOR 1254 (30%), Method: PREINCUBATION) “active; positive”; (Test System: AMES SALMONELLA TYPHIMURIUM, Strain/Indicator: TA100, Metabolic Activation: S-9, Method: STANDARD PLATE) “active; positive”; (Test System: CHINESE HAMSTER OVARY, Strain/Indicator: CHO-K1-BH4 (HGPRT)/6-THIOGUANINE, Metabolic Activation: NONE) “active; positive”; (Test System: CHINESE HAMSTER OVARY, Strain/Indicator: CHO-K1-BH4 (HGPRT)/6-THIOGUANINE, Metabolic Activation: S-9) “active; positive”. For the same compound, the mutagenic call is, setting by setting: (Test System: CHINESE HAMSTER V-79, Strain/Indicator: V-79/OUABAIN, Metabolic Activation: NONE) “inactive; negative”; (Test System: E. COLI, Strain/Indicator: WP2, Metabolic Activation: NONE, Method: FLUCTUATION) “active; positive”; (Test System: E. COLI, Strain/Indicator: WP2, Metabolic Activation: NONE, Method: PREINCUBATION) “active; positive”; (Test System: E. COLI, Strain/Indicator: WP2, Metabolic Activation: NONE, Method: STANDARD PLATE) “active; positive”; (Test System: E. COLI, Strain/Indicator: WP2, Metabolic Activation: RAT, LIVER, S-9, AROCLOR 1254, Method: STANDARD PLATE) “active; positive”; (Test System: E. COLI, Strain/Indicator: WP2 UVRA, Metabolic Activation: NONE, Method: FLUCTUATION) “active; positive”. Also, the mutagenic call is “active; positive” (Test System: E. COLI, Strain/Indicator: WP2 UVRA, Metabolic Activation: NONE, Method: PREINCUBATION); “active; positive” (Test System: E. COLI, Strain/Indicator: WP2 UVRA, Metabolic Activation: NONE, Method: STANDARD PLATE); “active; positive” under setting [1]; “active; positive” (Test System: Mouse lymphoma, Strain/Indicator: L5178Y (TK+/TK-), Metabolic Activation: None); “active; positive” (Test System: Mouse lymphoma, Strain/Indicator: L5178Y (TK+/TK-), Metabolic Activation: Rat, Liver, S-9); “active; positive” (Test System: UDS HUMAN CELLS, Strain/Indicator: EUE LINE/THY INCORP, Metabolic Activation: NONE, Method: AUTORADIOGRAPHY). Besides, the mutagenic call by setting is: (Test System: UDS MOUSE FORESTOMACH EPITHELIUM, Strain/Indicator: THY INCORP, Metabolic Activation: NONE, Method: AUTORADIOGRAPHY) “inactive; negative”; (Test System: UDS RAT HEPATOCYTES, Strain/Indicator: BROMODEOXYURIDINE INCORP, Metabolic Activation: NONE, Method: FLOW CYTOMETRIC ANALYSIS) “inactive; negative”; (Test System: UDS RAT HEPATOCYTES, Strain/Indicator: THY INCORP, Metabolic Activation: NONE, Method: AUTORADIOGRAPHY) “inactive; negative”.
`ClC(Cl)=C(c1ccc(Cl)cc1)c1ccc(Cl)cc1`: the mutagenic call was “inactive; negative” (End Point: IN VITRO CHROMOSOMAL ABERRATIONS, Test System: CHINESE HAMSTER OVARY CELLS, Metabolic Activation: NONE); “inactive; negative” (End Point: IN VITRO CHROMOSOMAL ABERRATIONS, Test System: CHINESE HAMSTER OVARY CELLS, Metabolic Activation: RAT, LIVER, S-9, AROCLOR 1254); “inactive; negative” (Test System: AMES SALMONELLA TYPHIMURIUM, Strain/Indicator: TA97, Metabolic Activation: NONE, Method: STANDARD PLATE); “inactive; negative” (Test System: AMES SALMONELLA TYPHIMURIUM, Strain/Indicator: TA97, Metabolic Activation: RAT, LIVER, S-9, AROCLOR 1254, Method: STANDARD PLATE); “inactive; negative” under setting [2]; “inactive; negative” under setting [3]. For the same compound, the mutagenic call is, setting by setting: (Test System: AMES SALMONELLA TYPHIMURIUM, Strain/Indicator: TA100, Metabolic Activation: NONE, Method: STANDARD PLATE) “inactive; negative”; (Test System: AMES SALMONELLA TYPHIMURIUM, Strain/Indicator: TA100, Metabolic Activation: RAT, LIVER, S-9, AROCLOR 1254, Method: STANDARD PLATE) “inactive; negative”; (Test System: CHINESE HAMSTER V-79, Strain/Indicator: V-79/8-AZAGUANINE, Metabolic Activation: NONE, Method: STANDARD PLATE) “active; positive”; under setting [1], “active; positive”.
As for `CC(C)(C)NC[C@@H](O)COc1ccccc1C1CCCC1`, the mutagenic call is, setting by setting: under setting [2], “active; positive”; under setting [3], “active; positive”.

(Values after PubChem BioAssay AID1259407 (Chemical Carcinogenesis Research Information System (CCRIS), 2018).)
